Results as given in PubChem BioAssay (NCI).
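The compound was tested at five concentrations on cells cultured in 96-well plates, with a 48-hour exposure period. Abbreviation: GI50, concentration required for 50% inhibition of growth. The concentration for full growth arrest is given as TGI.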

How the values were obtained:
Assay in all cases: NCI tumour cell line growth inhibition, 48 h
MOLT-4 leukemia = test system: MOLT-4 leukemia
RPMI-8226 leukemia = test system: RPMI-8226 leukemia
PC-3 prostate = test system: PC-3 prostate
OVCAR-3 ovarian = test system: OVCAR-3 ovarian
RXF 393 renal = test system: RXF 393 renal
COLO 205 colon = test system: COLO 205 colon
MDA-MB-435 = test system: MDA-MB-435
NCI/ADR-RES ovarian = test system: NCI/ADR-RES ovarian
SF-539 CNS = test system: SF-539 CNS
SK-MEL-28 melanoma = test system: SK-MEL-28 melanoma

Row | Structure (SMILES) | GI50 (MOLT-4 leukemia) [µM] | TGI (MOLT-4 leukemia) [µM] | GI50 (RPMI-8226 leukemia) [µM] | GI50 (PC-3 prostate) [µM] | TGI (PC-3 prostate) [µM] | GI50 (OVCAR-3 ovarian) [µM] | TGI (OVCAR-3 ovarian) [µM] | GI50 (RXF 393 renal) [µM] | TGI (RXF 393 renal) [µM] | GI50 (COLO 205 colon) [µM] | TGI (COLO 205 colon) [µM] | GI50 (MDA-MB-435) [µM] | TGI (MDA-MB-435) [µM] | GI50 (NCI/ADR-RES ovarian) [µM] | TGI (NCI/ADR-RES ovarian) [µM] | GI50 (SF-539 CNS) [µM] | TGI (SF-539 CNS) [µM] | GI50 (SK-MEL-28 melanoma) [µM] | TGI (SK-MEL-28 melanoma) [µM] | TGI (RPMI-8226 leukemia) [µM]
1 | CCN(CC)C(=S)SCN1C(=O)c2ccccc2S1(=O)=O | 23.9 | > 100 | < 0.01 | 4.9 | > 100 | 34.3 | > 100 | > 51.3 | > 80.1 | 33.2 | > 100 | 60.9 | > 100 | > 44.3 | > 64.9 | 41.7 | > 100 | 31 | > 85.1 | 
2 | CCOC(=O)c1cc(-c2ccccc2)[nH]c1N/N=C/c1ccc(Cl)cc1 | 16.8 | > 100 | 29.8 | 21.8 | > 100 | > 100 | > 100 | > 100 | > 100 | 42.5 | > 100 | > 100 | > 100 | 52.6 | > 100 | > 100 | > 100 | > 100 | > 100 | > 100
3 | COC(=O)c1cc2c3ccccc3[nH]c2c2sccc12 | 15.7 | > 100 | 15.1 | 22.1 | > 100 | 24.1 | > 100 | 23.6 | 80.4 | 17 | 41.8 | 20.3 | > 100 | 28.1 | > 100 | 21.5 | 94.8 | 40.4 | > 100 | > 100
4 | O=[N+]([O-])c1cc(C(F)(F)F)ccc1Sc1ccc(C(F)(F)F)cc1[N+](=O)[O-] | 3.92 | > 100 | 6.69 | 61.2 | > 100 | 5.11 | 54.9 | 11.4 | > 100 | 41.8 | > 100 | 3.04 | > 100 | 8.19 | > 100 | 9.15 | > 100 | 13.2 | > 100 | > 100
5 | OCCNc1nc(Nc2ccc(Cl)c(Cl)c2)nc2ccccc12 | 1.87 | 13.2 | 3.74 | 4.47 | 16.6 | 7.51 | 19.9 | 4.45 | 18.4 | 1.6 | 3.07 | 7.1 | 20.2 | 4.91 | 20 | 5.68 | 20.6 | 6.38 | 20.7 | 22.1
6 | CCCCCCCCCCCCCCCCCCOCC(CCP(=O)(CP(=O)(O)O)Oc1ccccc1)OCCCCCCCCCCCCCCCCCC (centres undefined) |  | > 100 |  |  | > 100 |  | > 100 |  | > 100 |  | > 100 |  | > 100 |  | > 100 |  | > 100 |  | > 100 | > 100
7 | Cc1cc(N2CCOCC2)nc(N(CCCNc2ccnc3cc(Cl)ccc23)Cc2ccco2)n1 | 3.02 | 13.1 | 2.13 | 3.03 | 12.9 | 1.81 | 4.49 | 1.69 | 4.43 | 1.71 | 3.72 | 0.858 | 6.41 | 1.95 | 6.66 | 1.95 | 4.02 | 2.29 | 6.66 | 6.33
8 | N#Cc1c(N)nc(N2CCOCC2)c(C#N)c1-c1ccccn1 | > 100 | > 100 | > 50.3 | > 100 | > 100 | > 100 | > 100 | > 100 | > 100 | > 100 | > 100 | > 100 | > 100 | > 100 | > 100 | > 100 | > 100 | > 100 | > 100 | > 100
